Reference: patent US8030354B2, “Substituted biphenyl GPR40 modulators” (Amgen Inc., priority 2007, dated 2011)

Assays:
[1] = target: T1, GPR40 (Homo sapiens, UniProt O14842); assay: Cell-based aequorin assay (CHO cells stably expressing GPR40 and aequorin); set-up: expressed in transfected cells; host or cells: CHO cells stably transfected with GPR40 and aequorin; settings: activation of human GPR40, CHO cells, 0.01% HSA
Summary of the method: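 CHO cells stably co-expressing GPR40 and aequorin, loaded with coelenterazine (1 ug/mL, 2 h, room temperature) in H/HBSS with 20 mM Hepes and 0.01% fatty acid-free HSA. Serially diluted compounds added; luminescence recorded over 20 s. EC50 from dose-response of maximum relative light units.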

[2] = target: T1, GPR40; assay: Inositol phosphate accumulation assay (A9_GPR40 cells); assay type: cell-based; set-up: expressed in transfected cells; host or cells: CHO cells stably transfected with GPR40 and aequorin; settings: inositol phosphate assay, A9_GPR40 cells, 1 hour; read-out: IP3 EC50
Summary of the method: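 A9 cells stably expressing GPR40 were labelled 16 h with 1 μCi/mL ^3H-inositol in inositol-free DMEM with dialysed FBS. Compounds in HBSS/10 mM LiCl with HSA were applied for 1 h at 37° C, then quenched with 20 mM formic acid. Accumulated [^3H] inositol phosphates were counted by SPA.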

T1 sequence (O14842 whole entry): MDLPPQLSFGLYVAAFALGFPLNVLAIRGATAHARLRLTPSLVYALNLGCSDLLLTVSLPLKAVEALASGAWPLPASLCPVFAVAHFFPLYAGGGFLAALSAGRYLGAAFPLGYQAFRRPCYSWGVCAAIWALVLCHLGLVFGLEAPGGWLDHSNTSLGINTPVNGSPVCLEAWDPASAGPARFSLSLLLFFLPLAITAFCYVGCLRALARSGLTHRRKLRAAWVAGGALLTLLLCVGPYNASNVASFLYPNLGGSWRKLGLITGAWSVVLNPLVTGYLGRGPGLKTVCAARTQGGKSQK

SMILES | EC50 [1] | EC50 [2]
CCCC(CC(=O)O)c1cccc(OCc2ccc(-c3cccc(OC)c3)c(C3=CCCC3(C)C)c2)c1 (single isomer, unassigned) [Example 67.12, (3R)-3-(3-(((2-(5,5-Dimethyl-1-cyclopenten-1-yl)-3′-(methyloxy)-1,1′-biphenyl-4-yl)methyl)oxy)phenyl)hexanoic acid or (3S)-3-(3-(((2-(5,5-dimethyl-1-cyclopenten-1-yl)-3′-(methyloxy)-1,1′-biphenyl-4-yl)methyl)oxy)phenyl)hexanoic acid] | 100 to 1000 nM | 10 to 100 nM
CCC[C@H](CC(=O)O)c1cccc(OCc2ccc(-c3cc(OC)ccc3F)c(N3CCCCC3)c2)c1 (single isomer, unassigned) [Example 67.20, (3R)-3-(3-(((2′-Fluoro-5′-(methyloxy)-2-(1-piperidinyl)-1,1′-biphenyl-4-yl)methyl)oxy)phenyl)hexanoic acid or (3S)-3-(3-(((2′-fluoro-5′-(methyloxy)-2-(1-piperidinyl)-1,1′-biphenyl-4-yl)methyl)oxy)phenyl)hexanoic acid] | 100 to 1000 nM | 10 to 100 nM
CCC[C@H](CC(=O)O)c1cccc(OCc2cc(C3=CCCC3(C)C)c(-c3cc(OC)ccc3F)cc2F)c1 (single isomer, unassigned) [Example 67.21] | 100 to 1000 nM | 10 to 100 nM
C=CC(C)(C)[C@H](OC)c1cc(COc2cccc([C@H](CCC)CC(=O)O)c2)ccc1-c1cc(OC)ccc1F (single isomer, unassigned) [Example 67.24] | 100 to 1000 nM | 10 to 100 nM
COc1ccc(F)c(-c2ccc(COc3cccc(C(CC(=O)O)CC4CC4)c3)cc2C2CCCCCC2)c1 (single isomer, unassigned) [Example 69.1, (3R)-3-(3-(((2-Cycloheptyl-2′-fluoro-5′-(methyloxy)-1,1′-biphenyl-4-yl)methyl)oxy)phenyl)-4-cyclopropylbutanoic acid or (3S)-3-(3-(((2-cycloheptyl-2′-fluoro-5′-(methyloxy)-1,1′-biphenyl-4-yl)methyl)oxy)phenyl)-4-cyclopropylbutanoic acid] | 100 to 1000 nM | < 10 nM
COc1cccc(-c2ccc(COc3cccc(C(CC(=O)O)CC4CC4)c3)cc2C2=CCCC2(C)C)c1 (single isomer, unassigned) [Example 69.2, (3R)-4-Cyclopropyl-3-(3-(((2-(5,5-dimethyl-1-cyclopenten-1-yl)-3′-(methyloxy)-1,1′-biphenyl-4-yl)methyl)oxy)phenyl)butanoic acid or (3S)-4-cyclopropyl-3-(3-(((2-(5,5-dimethyl-1-cyclopenten-1-yl)-3′-(methyloxy)-1,1′-biphenyl-4-yl)methyl)oxy)phenyl)butanoic acid] | 100 to 1000 nM | 10 to 100 nM
COc1cccc(-c2ccc(COc3cccc(C(CC(=O)O)CC4CC4)c3)cc2C(C)(C)C)c1 (single isomer, unassigned) [Example 69.3, (3R)-4-Cyclopropyl-3-(3-(((2-(1,1-dimethylethyl)-3′-(methyloxy)-1,1′-biphenyl-4-yl)methyl)oxy)phenyl)butanoic acid or (3S)-4-cyclopropyl-3-(3-(((2-(1,1-dimethylethyl)-3′-(methyloxy)-1,1′-biphenyl-4-yl)methyl)oxy)phenyl)butanoic acid] | 100 to 1000 nM | 10 to 100 nM

Now from value to compound:

EC50 [1] | EC50 [2] | SMILES
100 to 1000 nM | 10 to 100 nM | COc1ccc(F)c(-c2ccc(COc3cccc(C(CC(=O)O)CC4CC4)c3)cc2C(C)(C)C)c1 (single isomer, unassigned) [Example 69.4, (3R)-4-Cyclopropyl-3-(3-(((2-(1,1-dimethylethyl)-2′-fluoro-5′-(methyloxy)-1,1′-biphenyl-4-yl)methyl)oxy)phenyl)butanoic acid or (3S)-4-cyclopropyl-3-(3-(((2-(1,1-dimethylethyl)-2′-fluoro-5′-(methyloxy)-1,1′-biphenyl-4-yl)methyl)oxy)phenyl)butanoic acid]
100 to 1000 nM | 10 to 100 nM | COc1ccc(F)c(-c2ccc(COc3cccc(C(CC(=O)O)CC4CC4)c3)cc2C2=CCCC2(C)C)c1 (single isomer, unassigned) [Example 69.6, (3R)-4-Cyclopropyl-3-(3-(((2-(5,5-dimethyl-1-cyclopenten-1-yl)-2′-fluoro-5′-(methyloxy)-1,1′-biphenyl-4-yl)methyl)oxy)phenyl)butanoic acid or (3S)-4-cyclopropyl-3-(3-(((2-(5,5-dimethyl-1-cyclopenten-1-yl)-2′-fluoro-5′-(methyloxy)-1,1′-biphenyl-4-yl)methyl)oxy)phenyl)butanoic acid]
10 to 100 nM | < 10 nM | COc1cccc(-c2ccc(COc3cccc(C(CC(=O)O)CC4CC4)c3)cc2C2CCCC2(C)C)c1 (single isomer, unassigned) [Example 69.10]
100 to 1000 nM | 10 to 100 nM | COc1cccc(-c2ccc(COc3cccc(C(CC(=O)O)CC4CC4)c3)cc2C2CCCCCC2)c1 (single isomer, unassigned) [Example 69.11, (3R)-3-(3-(((2-Cycloheptyl-3′-(methyloxy)-1,1′-biphenyl-4-yl)methyl)oxy)phenyl)-4-cyclopropylbutanoic acid or (3S)-3-(3-(((2-cycloheptyl-3′-(methyloxy)-1,1′-biphenyl-4-yl)methyl)oxy)phenyl)-4-cyclopropylbutanoic acid]
100 to 1000 nM | < 10 nM | COc1ccc(F)c(-c2ccc(COc3cccc([C@@H](CC(=O)O)CC4CC4)c3)cc2C(C)C(C)C)c1 (single isomer, unassigned) [Example 69.12, (3R)-4-Cyclopropyl-3-(3-(((2-(1,2-dimethylpropyl)-2′-fluoro-5′-(methyloxy)-1,1′-biphenyl-4-yl)methyl)oxy)phenyl)butanoic acid or (3S)-4-cyclopropyl-3-(3-(((2-(1,2-dimethylpropyl)-2′-fluoro-5′-(methyloxy)-1,1′-biphenyl-4-yl)methyl)oxy)phenyl)butanoic acid]
100 to 1000 nM | < 10 nM | COc1ccc(F)c(-c2ccc(COc3cccc(C(CC(=O)O)CC4CC4)c3)cc2C2CCCCCCC2)c1 (single isomer, unassigned) [Example 69.13, (3R)-3-(3-(((2-Cyclooctyl-2′-fluoro-5′-(methyloxy)-1,1′-biphenyl-4-yl)methyl)oxy)phenyl)-4-cyclopropylbutanoic acid or (3S)-3-(3-(((2-cyclooctyl-2′-fluoro-5′-(methyloxy)-1,1′-biphenyl-4-yl)methyl)oxy)phenyl)-4-cyclopropylbutanoic acid]
100 to 1000 nM | 100 to 1000 nM | COc1ccc(F)c(-c2ccc(COc3cccc([C@@H](CC(=O)O)CC4CC4)c3)cc2C(O)C(C)(C)C)c1 (single isomer, unassigned) [Example 69.14, (3R)-4-Cyclopropyl-3-(3-(((2′-fluoro-2-(1-hydroxy-2,2-dimethylpropyl)-5′-(methyloxy)-1,1′-biphenyl-4-yl)methyl)oxy)phenyl)butanoic acid or (3S)-4-cyclopropyl-3-(3-(((2′-fluoro-2-(1-hydroxy-2,2-dimethylpropyl)-5′-(methyloxy)-1,1′-biphenyl-4-yl)methyl)oxy)phenyl)butanoic acid]
100 to 1000 nM | 10 to 100 nM | C=C(c1cc(COc2cccc([C@@H](CC(=O)O)CC3CC3)c2)ccc1-c1cc(OC)ccc1F)C(C)(C)C (single isomer, unassigned) [Example 69.15, (3R)-4-Cyclopropyl-3-(3-(((2-(1-(1,1-dimethylethyl)ethenyl)-2′-fluoro-5′-(methyloxy)-1,1′-biphenyl-4-yl)methyl)oxy)phenyl)butanoic acid or (3S)-4-cyclopropyl-3-(3-(((2-(1-(1,1-dimethylethyl)ethenyl)-2′-fluoro-5′-(methyloxy)-1,1′-biphenyl-4-yl)methyl)oxy)phenyl)butanoic acid]
10 to 100 nM | 10 to 100 nM | COc1ccc(F)c(-c2ccc(COc3cccc([C@@H](CC(=O)O)CC4CC4)c3)cc2CC(C)(C)C)c1 (single isomer, unassigned) [Example 69.16, (3R)-4-Cyclopropyl-3-(3-(((2-(2,2-dimethylpropyl)-2′-fluoro-5′-(methyloxy)-1,1′-biphenyl-4-yl)methyl)oxy)phenyl)butanoic acid or (3S)-4-cyclopropyl-3-(3-(((2-(2,2-dimethylpropyl)-2′-fluoro-5′-(methyloxy)-1,1′-biphenyl-4-yl)methyl)oxy)phenyl)butanoic acid]
100 to 1000 nM | < 10 nM | COc1ccc(F)c(-c2ccc(COc3cccc([C@@H](CC(=O)O)CC4CC4)c3)cc2C(F)C(C)(C)C)c1 (single isomer, unassigned) [Example 69.17, (3R)-4-cyclopropyl-3-(3-(((2′-fluoro-2-(1-fluoro-2,2-dimethylpropyl)-5′-(methyloxy)-1,1′-biphenyl-4-yl)methyl)oxy)phenyl)butanoic acid or (3S)-4-cyclopropyl-3-(3-(((2′-fluoro-2-(1-fluoro-2,2-dimethylpropyl)-5′-(methyloxy)-1,1′-biphenyl-4-yl)methyl)oxy)phenyl)butanoic acid]
